Laboratory results reported in ChEMBL document CHEMBL3508140 (2016).

Assays:
[1] = Volume of distribution of carminomycin following intravenous carminomycin at 1.0 mg.Kg-1 dose in dog; assay type: ADME, organism-based, Canis lupus familiaris; design: dose 1 mg.Kg-1, dosed compound id 2.46809e+06, dosed compound name Carminomycin, route intravenous; settings: Beagle, plasma
[2] = Plasma clearance of carminomycin following intravenous carminomycin at 1.0 mg.Kg-1 dose in dog; assay type: ADME, organism-based, Canis lupus familiaris; design: dose 1 mg.Kg-1, dosed compound id 2.46809e+06, dosed compound name Carminomycin, route intravenous; settings: Beagle, read-out: Clp
[3] = Terminal half-life of carminomycin following intravenous carminomycin at 1.0 mg.Kg-1 dose in dog; assay type: ADME, organism-based, Canis lupus familiaris; design: dose 1 mg.Kg-1, dosed compound id 2.46809e+06, dosed compound name Carminomycin, route intravenous; settings: Beagle, plasma
[4] = AUC values (0-48 h) of 7-deoxydoxorubicin aglycone in tumor following single intravenous doxorubicin at 10 mg.Kg-1 dose in female mouse bearing colon tumor; assay type: ADME, organism-based, BALB/c, Neoplasm; design: time < 48 hr, dose 10 mg.Kg-1, dosed compound id 2.46809e+06, dosed compound name Doxorubicin, gender F, regimen Single, route intravenous, sampling time 48 h; settings: in vivo
[5] = AUC values (0-48 h) of 7-deoxydoxorubicin aglycone in heart following single intravenous doxorubicin at 10 mg.Kg-1 dose in female mouse bearing colon tumor; assay type: ADME, organism-based, BALB/c; design: time < 48 hr, dose 10 mg.Kg-1, dosed compound id 2.46809e+06, dosed compound name Doxorubicin, gender F, regimen Single, route intravenous, sampling time 48 h; settings: in vivo
[6] = AUC values (0-48 h) of 7-deoxydoxorubicin aglycone in heart following single intravenous epirubicin at 10 mg.Kg-1 dose in female mouse bearing colon tumor; assay type: ADME, organism-based, BALB/c; settings: in vivo
[7] = Recovery of 7-deoxy doxorubicin-aglycone following intraperitoneal epirubicin at 4 mg.Kg-1 dose in mouse; assay type: ADME, organism-based, CD-1, Plasma; settings: in vivo, ip
[8] = Detection of 7-deoxy epirubicin-aglycone in heart following single intravenous epirubicin at 10 mg.Kg-1 dose in female mouse bearing colon tumor; assay type: ADME, organism-based, BALB/c; settings: in vivo
[9] = Recovery of 7-deoxy doxorubicin-aglycone following intravenous epirubicin at 1.5 mg.Kg-1 dose in man; assay type: ADME, organism-based, Plasma; settings: human, in vivo
[10] = Recovery of 7-deoxy doxorubicin-aglycone following intravenous epirubicin at 4 mg.Kg-1 dose in rabbit; assay type: ADME, organism-based, Oryctolagus cuniculus, New Zealand White, Plasma; settings: in vivo
[11] = Detection of 7-deoxy doxorubicin-aglycone in plasma following single intravenous doxorubicin at 10 mg.Kg-1 dose in female mouse bearing colon tumor; assay type: ADME, organism-based, BALB/c; design: dose 10 mg.Kg-1, dosed compound id 2.46809e+06, dosed compound name Doxorubicin, gender F, regimen Single, route intravenous, sampling time 48 h; settings: in vivo
[12] = Detection of 7-deoxy doxorubicin-aglycone in tumor following single intravenous doxorubicin at 10 mg.Kg-1 dose in female mouse bearing colon tumor; assay type: ADME, organism-based, BALB/c, Neoplasm; design: dose 10 mg.Kg-1, dosed compound id 2.46809e+06, dosed compound name Doxorubicin, gender F, regimen Single, route intravenous, sampling time 48 h; settings: in vivo
[13] = Detection of 7-deoxy doxorubicin-aglycone in heart following single intravenous doxorubicin at 10 mg.Kg-1 dose in female mouse bearing colon tumor; assay type: ADME, organism-based, BALB/c; design: dose 10 mg.Kg-1, dosed compound id 2.46809e+06, dosed compound name Doxorubicin, gender F, regimen Single, route intravenous, sampling time 48 h; settings: in vivo
[14] = Detection of 7-deoxy epirubicin-aglycone in tumor following single intravenous epirubicin at 10 mg.Kg-1 dose in female mouse bearing colon tumor; assay type: ADME, organism-based, BALB/c, Neoplasm; settings: in vivo
[15] = AUC values (0-48 h) of 7-deoxydoxorubicin aglycone in tumor following single intravenous epirubicin at 10 mg.Kg-1 dose in female mouse bearing colon tumor; assay type: ADME, organism-based, BALB/c, Neoplasm; settings: in vivo
[16] = AUC values (0-48 h) of 7-deoxydoxorubicin aglycone in plasma following single intravenous doxorubicin at 10 mg.Kg-1 dose in female mouse bearing colon tumor; assay type: ADME, organism-based, BALB/c; design: time < 48 hr, dose 10 mg.Kg-1, dosed compound id 2.46809e+06, dosed compound name Doxorubicin, gender F, regimen Single, route intravenous, sampling time 48 h; settings: in vivo
[17] = Detection of 7-deoxy epirubicin-aglycone in plasma following single intravenous epirubicin at 10 mg.Kg-1 dose in female mouse bearing colon tumor; assay type: ADME, organism-based, BALB/c; settings: in vivo
[18] = Recovery of 7-deoxy doxorubicin-aglycone following intraperitoneal epirubicin at 4 mg.Kg-1 dose in hamster; assay type: ADME, organism-based, Cricetulus griseus, Plasma; settings: chinese hamster, in vivo, ip
[19] = AUC values (0-48 h) of 7-deoxydoxorubicin aglycone in plasma following single intravenous epirubicin at 10 mg.Kg-1 dose in female mouse bearing colon tumor; assay type: ADME, organism-based, BALB/c; settings: in vivo
[20] = Recovery of 7-deoxy doxorubicin-aglycone following intravenous epirubicin at 4 mg.Kg-1 dose in rat; assay type: ADME, organism-based, SD, Plasma; settings: in vivo
[21] = Recovery of doxorubicinol following intravenous epirubicin at 1.5 mg.Kg-1 dose in man; assay type: ADME, organism-based, Plasma; settings: human, in vivo
[22] = Terminal half-life of doxorubicinol following intravenous doxorubicinol at 1.27 mg.Kg-1 dose in dog; assay type: ADME, organism-based, Canis lupus familiaris, Beagle, Plasma; design: dose 1.27 mg.Kg-1, dosed compound id 2.4681e+06, dosed compound name Doxorubicinol, route intravenous; settings: in vivo
[23] = Detection of doxorubicinol in tumor following single intravenous doxorubicin at 10 mg.Kg-1 dose in female mouse bearing colon tumor; assay type: ADME, organism-based, BALB/c, Neoplasm; design: dose 10 mg.Kg-1, dosed compound id 2.46809e+06, dosed compound name Doxorubicin, gender F, regimen Single, route intravenous, sampling time 48 h; settings: in vivo
[24] = Recovery of doxorubicinol following intravenous epirubicin at 4 mg.Kg-1 dose in rabbit; assay type: ADME, organism-based, Oryctolagus cuniculus, New Zealand White, Plasma; settings: in vivo
[25] = Detection of doxorubicinol in plasma following single intravenous doxorubicin at 10 mg.Kg-1 dose in female mouse bearing colon tumor; assay type: ADME, organism-based, BALB/c; design: dose 10 mg.Kg-1, dosed compound id 2.46809e+06, dosed compound name Doxorubicin, gender F, regimen Single, route intravenous, sampling time 48 h; settings: in vivo
[26] = (§1) Urinary elimination of adriamycinol following intravenous bolus adriamycin at 10 mg.Kg-1 dose in rat; assay type: ADME, organism-based, SD, Urine; design: dose 10 mg.Kg-1, dosed compound id 2.46809e+06, dosed compound name Doxorubicin, route intravenous, sampling time 0-60 h; settings: in vivo
[27] = AUC values (0-48 h) of doxorubicinol in tumor following single intravenous doxorubicin at 10 mg.Kg-1 dose in female mouse bearing colon tumor; assay type: ADME, organism-based, BALB/c, Neoplasm; design: time < 48 hr, dose 10 mg.Kg-1, dosed compound id 2.46809e+06, dosed compound name Doxorubicin, gender F, regimen Single, route intravenous, sampling time 48 h; settings: in vivo
[28] = Recovery of doxorubicinol following intraperitoneal epirubicin at 4 mg.Kg-1 dose in mouse; assay type: ADME, organism-based, CD-1, Plasma; settings: in vivo, ip
[29] = Recovery of doxorubicinol following intraperitoneal epirubicin at 4 mg.Kg-1 dose in hamster; assay type: ADME, organism-based, Cricetulus griseus, Plasma; settings: chinese hamster, in vivo, ip
[30] = as §1; assay type: ADME, organism-based, SD, Urine; design: dose 10 mg.Kg-1, dosed compound id 2.46809e+06, dosed compound name Doxorubicin, route intravenous, sampling time 0-6 h; settings: in vivo
[31] = AUC values (0-48 h) of doxorubicinol in heart following single intravenous doxorubicin at 10 mg.Kg-1 dose in female mouse bearing colon tumor; assay type: ADME, organism-based, BALB/c; design: time < 48 hr, dose 10 mg.Kg-1, dosed compound id 2.46809e+06, dosed compound name Doxorubicin, gender F, regimen Single, route intravenous, sampling time 48 h; settings: in vivo
[32] = AUC values (0-48 h) of doxorubicinol in plasma following single intravenous doxorubicin at 10 mg.Kg-1 dose in female mouse bearing colon tumor; assay type: ADME, organism-based, BALB/c; design: time < 48 hr, dose 10 mg.Kg-1, dosed compound id 2.46809e+06, dosed compound name Doxorubicin, gender F, regimen Single, route intravenous, sampling time 48 h; settings: in vivo
[33] = Recovery of doxorubicinol following intravenous epirubicin at 4 mg.Kg-1 dose in rat; assay type: ADME, organism-based, SD, Plasma; settings: in vivo
[34] = Detection of doxorubicinol in heart following single intravenous doxorubicin at 10 mg.Kg-1 dose in female mouse bearing colon tumor; assay type: ADME, organism-based, BALB/c; design: dose 10 mg.Kg-1, dosed compound id 2.46809e+06, dosed compound name Doxorubicin, gender F, regimen Single, route intravenous, sampling time 48 h; settings: in vivo
[35] = as §1; assay type: ADME, organism-based, SD, Urine; design: dose 10 mg.Kg-1, dosed compound id 2.46809e+06, dosed compound name Doxorubicin, route intravenous, sampling time 0-24 h; settings: in vivo

In the case of `CC(=O)[C@]1(O)Cc2c(O)c3c(c(O)c2[C@@H](O[C@H]2C[C@H](N)[C@H](O)[C@H](C)O2)C1)C(=O)c1c(O)cccc1C3=O` [CARUBICIN], the Vd [1] is reported as 98.5 L/kg, the clearance [2] is reported as 1360 mL/min and the half-life [3] is reported as 20.3 min.

With `COc1cccc2c1C(=O)c1c(O)c3c(c(O)c1C2=O)C[C@@](O)(C(=O)CO)CC3` the AUC [4] was 135 nmol·min/g, the AUC [5] was 152 nmol·min/g and the AUC [6] was 49 nmol·min/g. For the same compound, the Compound recovery [7] was 0 10^-9M, the Compound recovery [8] was “OUTCOME = Observed” and the Compound recovery [9] was 14 10^-9M. The Compound recovery [10] was 0 10^-9M, the Compound recovery [11] was “OUTCOME = Observed” and the Compound recovery [12] was “OUTCOME = Observed”. The Compound recovery [13] was “OUTCOME = Observed”, the Compound recovery [14] was “OUTCOME = Observed” and the AUC [15] was 11 nmol·min/g. For the same compound, the AUC [16] was 4.1 nmol·min/mL, the Compound recovery [17] was “OUTCOME = Observed” and the Compound recovery [18] was 1.3 10^-9M. The AUC [19] was 1.6 nmol·min/mL and the Compound recovery [20] was 0 10^-9M.

For `COc1cccc2c1C(=O)c1c(O)c3c(c(O)c1C2=O)C[C@@](O)(C(O)CO)C[C@@H]3O[C@H]1C[C@H](N)[C@H](O)[C@H](C)O1` (stereo not given in full), the Compound recovery [21] was 1 10^-9M, the t1/2 [22] was “VALUE = Shorter than doxorubicin” and the Compound recovery [23] was “OUTCOME = Not detected/not observed”. The Compound recovery [24] was 0.3 10^-9M, the Compound recovery [25] was “OUTCOME = Observed” and the Compound recovery [26] was 0.3%. For the same compound, the AUC [27] was 0 nmol·min/g, the Compound recovery [28] was 0 10^-9M and the Compound recovery [29] was 0.1 10^-9M. For the same compound, the Compound recovery [30] was 0.22%, the AUC [31] was 228 nmol·min/g and the AUC [32] was 1.7 nmol·min/mL. The Compound recovery [33] was 0.6 10^-9M, the Compound recovery [34] was “OUTCOME = Observed” and the Compound recovery [35] was 0.26%.
